Experiments:
[1] = tested on: hippocampal CA3 pyramidal neurons; assay: Acute i.v. prucalopride on firing of hippocampal CA3 pyramidal neurons, with microiontophoresis; assay type: in vivo, rat; details: prucalopride 1000 μg/kg i.v.
Description: FIGS. 9A to 9D. FIGS. 9A and 9C show a typical example (integrated firing rate histogram) of the response of a single hippocampal pyramidal neuron of the CA3 sub-field to an acute, intravenous administration of the selective 5-HT4 agonist prucalopride (1000 μg/kg), and its reversal by local, microiontophoretic application of the selective 5-HT1A antagonist WAY 100635 (A), or systemic injection of the selective 5-HT4 antagonist GR 125487 (1000 μg/kg, i.v.) (C). Single-cell extracellular recordings were performed in the CA3 region of chloral-hydrate anaesthetized rats by using multiple-barrel glass microelectrodes, combined with microiontophoretic pumps (with the central barrel used for recordings). Pyramidal neurons were identified according to the classical criteria (see Example 5, experimental procedures). FIGS. 9B and 9D show a summary of the effects as for FIGS. 9A and 9C, respectively. Bar histograms represent the mean (S.E.M.) percentage effect, calculated for each neuron with respect to its basal firing rate (i.e. 100% value), and the number in each column represents the number of neurons tested. *p<0.05 vs basal value, one-way ANOVA.
Microiontophoresis and extracellular recordings from hippocampal CA3 pyramidal neurons. Recording and microiontophoresis were performed with five-barreled glass micropipettes broken back to 8-12 μm under microscope control. The central barrel was filled with the same solution as in the DRN and was used for extracellular unitary recordings. Pyramidal neurons were identified by their large amplitude (0.5-1.2 mV) and long-duration (0.8-1.2 ms) simple spikes alternating with complex spike discharges (Kandel and Spencer, 1961). The side barrels contained the following solutions: quisqualate (1.5 mM in 200 mM NaCl, pH 8), WAY 100635 (15 mM in 200 mM NaCl, pH 4), and 2 M NaCl used for automatic current balancing. Rats were mounted in the stereotaxic apparatus and the micropipettes were lowered at 4.2 mm lateral and 4.2 anterior to lambda into the CA3 sub-region of the dorsal hippocampus.
Involvement of endogenous 5-HT and hippocampal 5-HT1A receptors in the effect of 5-HT4 agonists. […] This interpretation is consistent with our own previous findings, showing that both acute and chronic (3-day) administration of the same compounds augment DRN 5-HT neuronal firing activity (Lucas and Debonnel, 2002; Lucas et al., 2005). It is also in keeping with observations from a single in vivo microdialysis study, where acute systemic injection of preferential 5-HT4 agonists increased hippocampal 5-HT efflux (Ge and Barnes, 1996). To further address this possibility, two additional series of experiments were conducted. First, the role of endogenous 5-HT was assessed by using the same protocol as above, in rats co-treated with RS 67333 (or its vehicle) and the 5-HT depleter para-chlorophenylalanine (pCPA). […] The ejection currents of quisqualate needed to activate CA3 pyramidal neurons were, in this case, similar to those used in controls (0 to −2 nA, FIG. 8C). We then tested the ability of a local application of WAY 100635, directly into the CA3 subfield through the use of microiontophoresis, to modify the effect of a 5-HT4 agonist. We chose not to use the previous protocol (i.e. chronic treatments), because, as shown above, the required quisqualate currents differ between the experimental groups. Even though all currents were balanced, it was not possible to exclude the possibility that the amount of quisqualate present in the vicinity of the electrode may have an influence on the quantity of WAY 100635 actually ejected, and/or on its ability to act on pyramidal neurons. For this reason, prucalopride was used acutely in naïve rats, at a dose known to induce a significant augmentation of DRN 5-HT neuronal activity (1000 μg/kg, i.v.) (Lucas and Debonnel, 2002). […]

[2] = Horizontal locomotion in activity chambers; details: i.p. 30 min before testing; prucalopride 2.5 mg/kg, RS 67333 1.5 mg/kg
Description: All data are expressed as mean±S.E.M. of eight animals per group, and are from an observation of 4 min duration. Rats experienced a pre-test session (15 min) 24 h before the test session. The 5-HT4 agonists were administered 30 min before the test session. […] Data are expressed as mean±S.E.M. of eight animals per group, and are from an observation of 10 min duration. The 5-HT4 agonists were administered 30 min before testing. *p<0.05, **p<0.01 vs the vehicle, Dunnett's test;
Thirty min after drug administration, rats were placed in activity cages in whom photoelectric cells were inserted allowing recordings of locomotor activity, i.e. quantification of the total number of activity counts (photocell beam breaks) during 10 min. session.

- effect on rat locomotion (activity counts, 10 min) [2]: 78%
Structure (SMILES): COCCCN1CCC(NC(=O)c2cc(Cl)c(N)c3c2OCC3)CC1 [prucalopride]
- inhibition at 1 mg/kg ([1]; Rattus norvegicus, Pyramidal neuron, iv, Discussion): ~50%
- discharge of inhibited CA3 pyramidal neurons ([1]; naïve rats, the 17 inhibited neurons): 46 (±5.6) % of pre-drug values
- share of recorded pyramidal neurons inhibited ([1]; 17 of 38 neurons): 45 % of total

Source: patent US20090170899A1, “Stimulators of 5-HT4 receptors and uses thereof” (priority 2004, published 2009)
